Laboratory results reported in patent US12622965B2, “Therapeutical tools and methods using temperature-sensitive receptors for treating blindness” (FRIEDRICH MIESCHER INSTITUTE FOR BIOMEDICAL RESEARCH, priority 2020, dated 2026).

Tests used:
[1] = tested on: cone photoreceptors of the rd1 mouse; experiment: AAV transduction of rd1 mouse cones after subretinal injection, quantified by immunofluorescence and confocal imaging; format: in vivo
Excerpt: The inventors targeted rTRPV1 to cone photoreceptors of the Pde6brd1 (known as rd1) mouse via subretinal injection of adeno-associated virus (AAV) and a photoreceptor-specific promoter (mCar) to restrict expression. Rd1 mice have severe photoreceptor degeneration with complete loss of rod and dysfunctional light-insensitive cone photoreceptors by four weeks of age postnatal (P28). 55±10% of rd1 cones expressed rTRPV1 in the cell membrane (n=12,813 cones mm−2, n=7042 TRPV1 positive cones mm−2, mean±s.d). 98±1.6% of rat TRPV1 positive cells were cones (n=7216 TRPV1 positive cells mm−2, n=7042 TRPV1 positive cones mm−2, mean±s.d).
Ocular injections to deliver AAVs expressing TRP variants and/or functionalized nanorods were performed on 4 week old mice anesthetized with 2.5% isoflurane. A small incision was made with a sharp 30 gauge needle at the nasal corneo-scleral junction and AAV and/or nanorods were co-injected through this incision into the subretinal space using a blunt 5 μL Hamilton syringe held in a micromanipulator. For cone photoreceptor activity monitoring, cone specific AAV-ProA7-GCaMP6s (11) was co-injected subretinally with rTRPV1 and/or nanorods. A maximum volume of 2.5 μL was administered per eye. For primary visual cortex activity monitoring, AAV-pCAG-FLEX2-tTA2 was delivered by intravenous retro-orbital injection as previously described by D. Hillier et al. Nat Neurosci 20, 960-968 (2017) 2 weeks after initial ocular injection of rTRPV1 and nanorods. […]
A Zeiss LSM 700 laser scanning confocal microscope was used to acquire images of antibody stained cells and tissues with an EC Plan-Neofluar 40×/1.30 oil M27 objective at up to 4 excitation laser lines according to secondary antibody specification. Expression was assessed from 1024×1024 pixel images in a z-stack with 0.75 μm steps. […] AAV transduction was quantified from retinal wholemounts. […] Quantification was performed separately for outer nuclear layer, inner nuclear layer and ganglion cell layer.

[2] = tested on: human retina (ONL, INL, GCL cells); experiment: two-photon acousto-optic calcium imaging of NIR responses in ex vivo human retina; format: cell-based
Excerpt: High-speed three-dimensional acousto-optic calcium imaging of neuronal network activity permits observation of response propagation from photoreceptors through the retina. To detect NIR light driven responses in the human retina, the inventors deposited nanorods (Abs 915 nm) over the photoreceptor side of the retina and performed two-photon calcium imaging of individual cells in the outer nuclear layer (ONL), which hosts photoreceptors, the inner nuclear layer (INL), which hosts horizontal, bipolar and amacrine cells, and the ganglion cell layer (GCL) which hosts ganglion and amacrine cells. To record calcium signals, the fluorescent calcium dye Oregon Green 488 BAPTA-1 (OGB-1) was electroporated into the cells. […] In cells of the INL and GCL layers, bidirectional changes in the calcium signal indicate activation of excitatory and inhibitory retinal pathways. More cells responded in the GCL than in the ONL, reflecting convergent retinal circuit organization (Chi Squared Test, P=0.0006; GCL, n=41 responding neurons, n=83 total neurons, 49.4%; ONL, n=16 responding photoreceptors, n=74 total photoreceptors, 21.6%). There was no significant difference in number of NIR light responding cells between INL and GCL (Chi Squared Test, P=0.89; INL, n=46 responding neurons, n=93 total neurons, 49.5%).
Human retinal tissue was obtained after corneal tissue harvest from adult multi-organ donors with no reported history of eye disease, n=2 eyes from n=2 donors. After cornea isolation, the iris, lens, and vitreous were removed and the retina was submerged in flowing Ames' medium (Sigma, A1420) saturated with 95% O2 and 5% CO2. […] Samples used for tissue culture were of mid-peripheral origin, midway between the fovea and the anterior retinal border. For organotypic retinal culture, 4×4 mm retinal pieces were isolated and placed photoreceptor-side-up on polycarbonate membranes inserts (Corning, 3412). The cultures were maintained at 37° C. and 5% CO2 in DMEM/F12 medium (Thermo Fisher Scientific), supplemented with 0.1% bovine serum albumin (BSA), 10 μM O-acetyl-L-carnitine hydrochloride, 1 mM fumaric acid, 0.5 mM galactose, 1 mM glucose, 0.5 mM glycine, 10 mM HEPES, 0.05 mM mannose, 13 mM sodium bicarbonate, 3 mM taurine, 0.1 mM putrescine dihydrochloride, 0.35 μM retinol, 0.3 μM retinyl acetate, 0.2 μM (+)-α-tocopherol, 0.5 mM ascorbic acid, 0.05 μM sodium selenite, 0.02 μM hydrocortisone, 0.02 μM progesterone, 1 μM insulin, 0.003 μM 3,3′,5-triiodo-L-thyronine, 2 000 U penicillin and 2 mg streptomycin (Sigma). For AAV infection, 40 μL of virus was applied per retinal explant 4-5 days after plating. The culture medium was renewed every 48 hours. Light responses were recorded from samples 8 weeks post-mortem. […]

[3] = AAV, mCar promoter, subretinal injection, mean±s.d
[4] = nanorods (Abs 915 nm) on photoreceptor side, 8 weeks post-mortem

TRPV1.465-6x-His: rat TRPV1 channel with 6x-His epitope tag inserted in the first extracellular loop after amino acid 465; delivered by AAV
channel (TRPV1 or Ollas) positive cells that were cones [1, 3]: 98±1.6%
rd1 cones expressing the channel in the cell membrane [1, 3]: 55±10%
expression of the 6x-His tag in TRPV1 positive cones ([1]; rd1 mouse): All TRPV1 positive cones expressed the 6x-His tag
NIR light responding cells in the GCL [2, 4]: 49.4%
NIR light responding cells in the INL [2, 4]: 49.5%
NIR light responding photoreceptors in the ONL [2, 4]: 21.6%
NIR light-evoked activation in retinal explants ([2]; rTRPV1 transduced explants (n=3), nanorods (Abs 915 nm)): NIR light-evoked activation could be detected
